Assay results published in US10947239B2, “[1,2,4]triazolo[1,5-a]pyrimidin-7-yl compound” (Janssen Pharmaceutica NV, priority 2015, dated 2021).

What was measured:
[1] = biological target: Human recombinant PDE2A (hPDE2A) (Homo sapiens (Human), UniProt O00408); assay: In vitro assay PDE2A (SPA, 3H-cGMP); assay type: biochemical
Description: Human recombinant PDE2A (hPDE2A) was expressed in Sf9 cells using a recombinant […] baculovirus construct. […] Tested compounds were dissolved and diluted in 100% DMSO to a concentration 100 fold of the final concentration in the assay. Compound dilutions (0.4 μl) were added in 384 well plates to 20 μl of incubation buffer (50 mM Tris pH 7.8, 8.3 mM MgCl2, 1.7 mM EGTA). […] of hPDE2A enzyme in incubation buffer was added and the reaction was started by addition of 10 μl substrate to a final concentration of 10 μM cGMP and 0.01 μCi ^3H-cGMP. The reaction was incubated for 45 minutes at room temperature. […] After sedimentation of the beads during 30 minutes the radioactivity was measured in a Perkin Elmer Topcount scintillation counter and results were expressed as cpm. For blanc values the enzyme was omitted from the reaction and replaced by incubation buffer. Control values were obtained by addition of a final concentration of 1% DMSO instead of compound.

[2] = tested on: dentate gyrus of anesthetized adult Sprague Dawley; assay: LTP / synaptic plasticity in dentate gyrus of anesthetized rats; assay type: in vivo, rat
[3] = biological target: Human recombinant PDE3A (hPDE3A) (Homo sapiens, UniProt Q14432); assay: In vitro assay PDE3A (SPA, 3H-cAMP); assay type: biochemical; settings: −log IC50 expressed in mol/L; method describes hPDE3A
Description: Human recombinant PDE3A (hPDE3A) was supplied as a partially purified insect cell lysate by Scottish Biomedical, it was cloned from human brain and expressed in Sf9 cells. Tested compounds were dissolved and diluted in 100% DMSO to a concentration 100 fold of the final concentration in the assay. Compound dilutions (0.4 μl) were added in 384 well plates to 20 μl of incubation buffer (50 mM Tris pH 7.8, 8.3 mM MgCl2, 1.7 mM EGTA). 10 μl of hPDE3A enzyme in incubation buffer was added and the reaction was started by addition of 10 μl substrate to a final concentration of 0.4 μM cAMP and 2.4 μCi/ml [^3H]-cAMP. The reaction was incubated for 60 min at room temperature. After incubation, the reaction was stopped with 20 μl of stop solution consisting of 17.8 mg/ml PDE SPA (scintillation proximity assay) beads supplemented with 200 mM ZnCl2. After sedimentation of the beads during 30 min the radioactivity was measured in a Perkin Elmer Topcount scintillation counter and results were expressed as cpm. For blanc values the enzyme was omitted from the reaction and replaced by incubation buffer. Control values were obtained by addition of a final concentration of 1% DMSO instead of compound. […]

[4] = biological target: Rat recombinant PDE10A (rPDE10A2) (Rattus norvegicus (Rat), UniProt Q9QYJ6); assay: In vitro assay PDE10A (SPA, 3H-cAMP); assay type: biochemical; settings: −log IC50 expressed in mol/L
Description: Rat recombinant PDE10A (rPDE10A2) was expressed in Sf9) cells using a recombinant rPDE10A baculovirus construct. Cells were harvested after 48 h of infection and the rPDE10A protein was purified by metal chelate chromatography on Ni-sepharose 6FF. Tested compounds were dissolved and diluted in 100% DMSO to a concentration 100 fold of the final concentration in the assay. Compound dilutions (0.4 μl) were added in 384 well plates to 20 μl of incubation buffer (50 mM Tris pH 7.8, 8.3 mM MgCl2, 1.7 mM EGTA). 10 μl of rPDE10A enzyme in incubation buffer was added and the reaction was started by addition of 10 μl substrate to a final concentration of 60 nM cAMP and 0.008 μCi ^3H-cAMP. The reaction was incubated for 60 minutes at room temperature. After incubation, the reaction was stopped with 20 μl of stop solution consisting of 17.8 mg/ml PDE SPA (scintillation proximity assay) beads. After sedimentation of the beads during 30 minutes the radioactivity was measured in a Perkin Elmer Topcount scintillation counter and results were expressed as cpm. For blanc values the enzyme was omitted from the reaction and replaced by incubation buffer. Control values were obtained by addition of a final concentration of 1% DMSO instead of compound. […]

Marshall Beagle dogs = assay: Single dose PK/PD PDE2i dog study; assay type: in vivo
Text: For these studies male and female Marshall Beagle dogs (1-6 y) were used: 2 males and 2 females per treatment group. Cerebrospinal fluid (CSF) was sampled from the lateral ventricle via a needle guide cannula in instrumented conscious animals.
Baseline CSF and blood samples were taken 2 to 5 days before dosing. The dogs are fasted overnight and the next morning dosed on an empty stomach (orally by gavage). At predetermined time points after dosing blood and/or CSF was collected for the measurement of compound levels and cGMP. Analysis of cGMP was done by LCMS/MS: 25 μl CSF was diluted with 125 μl artificial CSF (STIL (20 ng/ml)), centrifugated and 25 μl was injected. The systems used were: a Shimadzu SIL-30 UPLC-system (Hypercarb (50 mm×1 mm (3 μm)) column, basic (10 mM ammonium carbonate) aqueous-acetonitrile gradient (5% to 98% in 5.5 minutes) at a flow-rate of 250 μl/min) and an API Sciex 5500 system equiped with an ESI source (selective MRM transition (m/z 346.1→152.1 (75 msec dwelltime)). The results of this study are summarized in FIG. 7. After a single dose of compound 1 the following observations were made: slight to moderate tremors in 3/8 animals at 0.5 mg/kg; sedation and/or tremors in 6 out of 7 animals at 1 mg/kg (one animal was not dosed due to limited stock of the compound). […] Limited individual data in the vehicle group of PDE2 H-2 (n=2 at 1, 4 and 8 h) due to analytical errors.

[5] = 40 mg/kg SC, 90-120 min post-tetanization, relative to baseline 100%

Chain of Human recombinant PDE2A (hPDE2A) (O00408 whole entry): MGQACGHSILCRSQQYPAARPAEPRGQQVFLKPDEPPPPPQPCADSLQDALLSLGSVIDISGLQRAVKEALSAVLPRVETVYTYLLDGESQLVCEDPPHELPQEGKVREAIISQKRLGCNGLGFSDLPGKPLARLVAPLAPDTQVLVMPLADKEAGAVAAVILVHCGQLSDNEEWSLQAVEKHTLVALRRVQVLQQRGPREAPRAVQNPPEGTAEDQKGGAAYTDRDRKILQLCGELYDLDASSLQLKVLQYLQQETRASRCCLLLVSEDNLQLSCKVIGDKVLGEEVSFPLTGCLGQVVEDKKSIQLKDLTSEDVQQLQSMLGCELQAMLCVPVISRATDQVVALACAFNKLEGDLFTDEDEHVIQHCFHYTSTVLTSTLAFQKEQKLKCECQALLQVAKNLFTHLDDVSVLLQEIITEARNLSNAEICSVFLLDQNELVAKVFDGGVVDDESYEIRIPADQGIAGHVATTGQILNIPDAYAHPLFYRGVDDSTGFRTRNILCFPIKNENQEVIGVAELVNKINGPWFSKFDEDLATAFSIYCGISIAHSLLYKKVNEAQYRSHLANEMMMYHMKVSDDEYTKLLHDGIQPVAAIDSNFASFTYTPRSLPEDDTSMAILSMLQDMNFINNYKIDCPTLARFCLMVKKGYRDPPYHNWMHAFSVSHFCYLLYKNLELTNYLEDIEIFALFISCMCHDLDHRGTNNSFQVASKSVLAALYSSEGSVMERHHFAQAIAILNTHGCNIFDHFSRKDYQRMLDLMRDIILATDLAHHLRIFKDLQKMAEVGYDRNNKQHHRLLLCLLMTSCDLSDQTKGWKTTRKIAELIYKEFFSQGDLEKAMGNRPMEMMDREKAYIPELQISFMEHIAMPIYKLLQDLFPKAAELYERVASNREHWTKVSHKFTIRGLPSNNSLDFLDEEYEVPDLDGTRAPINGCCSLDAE
Chain of Rat recombinant PDE10A (rPDE10A2) (Q9QYJ6 whole entry): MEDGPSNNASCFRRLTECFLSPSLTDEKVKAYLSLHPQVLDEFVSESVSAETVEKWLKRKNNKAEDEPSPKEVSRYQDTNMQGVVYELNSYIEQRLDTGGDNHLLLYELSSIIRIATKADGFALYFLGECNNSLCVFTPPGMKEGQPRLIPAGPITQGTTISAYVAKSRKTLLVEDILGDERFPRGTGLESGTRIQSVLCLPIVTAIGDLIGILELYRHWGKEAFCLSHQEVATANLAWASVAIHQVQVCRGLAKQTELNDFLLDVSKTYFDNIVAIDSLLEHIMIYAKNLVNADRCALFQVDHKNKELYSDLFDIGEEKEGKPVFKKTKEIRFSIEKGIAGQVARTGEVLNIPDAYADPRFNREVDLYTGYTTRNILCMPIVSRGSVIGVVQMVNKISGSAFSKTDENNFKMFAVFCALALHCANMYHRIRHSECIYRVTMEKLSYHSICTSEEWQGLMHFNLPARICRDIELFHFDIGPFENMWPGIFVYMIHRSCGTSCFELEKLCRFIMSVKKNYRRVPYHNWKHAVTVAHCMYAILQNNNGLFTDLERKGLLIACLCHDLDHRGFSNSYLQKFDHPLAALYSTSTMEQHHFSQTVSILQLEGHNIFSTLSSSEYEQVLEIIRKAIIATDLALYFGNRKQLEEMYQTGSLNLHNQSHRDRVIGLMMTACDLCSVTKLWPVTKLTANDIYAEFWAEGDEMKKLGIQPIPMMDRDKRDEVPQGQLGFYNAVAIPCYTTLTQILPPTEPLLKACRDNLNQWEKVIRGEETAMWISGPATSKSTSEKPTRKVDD
Chain of Human recombinant PDE3A (hPDE3A) (Q14432 whole entry, looked up): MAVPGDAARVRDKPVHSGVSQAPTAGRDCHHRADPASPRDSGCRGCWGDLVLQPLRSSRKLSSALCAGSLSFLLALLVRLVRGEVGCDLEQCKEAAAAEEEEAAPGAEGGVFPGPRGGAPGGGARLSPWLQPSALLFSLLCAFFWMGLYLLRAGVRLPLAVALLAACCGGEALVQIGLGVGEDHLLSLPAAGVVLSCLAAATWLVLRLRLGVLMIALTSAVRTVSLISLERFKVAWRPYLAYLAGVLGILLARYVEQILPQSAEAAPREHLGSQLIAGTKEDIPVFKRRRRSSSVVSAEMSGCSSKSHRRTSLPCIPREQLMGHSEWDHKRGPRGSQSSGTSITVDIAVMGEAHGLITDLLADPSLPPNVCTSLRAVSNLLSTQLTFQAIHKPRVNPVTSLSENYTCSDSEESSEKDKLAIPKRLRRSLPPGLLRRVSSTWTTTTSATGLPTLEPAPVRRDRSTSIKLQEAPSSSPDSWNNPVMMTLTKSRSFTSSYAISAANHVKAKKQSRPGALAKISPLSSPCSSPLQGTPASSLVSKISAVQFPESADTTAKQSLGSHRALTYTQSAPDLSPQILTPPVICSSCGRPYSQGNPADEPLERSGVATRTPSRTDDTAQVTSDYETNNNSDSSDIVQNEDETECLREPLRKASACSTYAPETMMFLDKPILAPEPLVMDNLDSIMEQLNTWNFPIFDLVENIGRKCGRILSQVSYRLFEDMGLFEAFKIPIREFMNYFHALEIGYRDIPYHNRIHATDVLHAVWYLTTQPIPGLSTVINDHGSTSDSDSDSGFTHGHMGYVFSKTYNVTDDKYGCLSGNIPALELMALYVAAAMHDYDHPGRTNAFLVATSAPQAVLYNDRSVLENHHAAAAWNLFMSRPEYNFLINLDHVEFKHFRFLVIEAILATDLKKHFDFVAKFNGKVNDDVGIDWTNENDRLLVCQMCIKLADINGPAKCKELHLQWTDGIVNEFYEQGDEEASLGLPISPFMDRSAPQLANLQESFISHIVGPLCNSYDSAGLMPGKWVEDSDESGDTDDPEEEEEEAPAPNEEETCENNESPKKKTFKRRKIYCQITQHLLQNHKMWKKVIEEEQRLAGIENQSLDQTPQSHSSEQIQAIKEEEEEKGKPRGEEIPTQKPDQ

With `Cc1cc(C(=O)N2CC[C@@H](C)[C@H](c3cc(C(F)F)nc4ncnn34)C2)cc(C)n1` [Compound 1] the IC50 ([1]; hPDE2A, 10 μM cGMP) was 0.95 nM, the “pIC50 (PDE2A)” value ([1]; −log IC50 expressed in mol/L) was 9.07 and the PSA slopes ([2]; 40 mg/kg SC, 0-30 min after tetanization, relative to baseline 100%) was 164±13%. For the same compound, the PSA amplitude [2, 5] was 179±20%, the fEPSP slope [2, 5] was 137±24% and the “duration of enhanced synaptic potentiation” value ([2]; 40 mg/kg SC, LTP induction paradigm) was greater than 2 h. The Basal synaptic transmission ([2]; baseline pre-tetanus, versus vehicle-treated control) was “not affected”, the LTP in vivo ([2]; overall conclusion) was “facilitates LTP in vivo” and the “pIC50 PDE3B” value [3] was 5.21. The “pIC50 PDE10A2” value [4] was 7.06, the “Plasma pharmacokinetics dose linearity” value (Marshall Beagle dogs; single oral dose) was “non-dose linearity” and the “slight to moderate tremors” value (Marshall Beagle dogs; single oral dose 0.5 mg/kg) was 3/8. For the same compound, the sedation and/or tremors (Marshall Beagle dogs; single oral dose 1 mg/kg) was 6 out of 7 and the “cGMP in the CSF” value (Marshall Beagle dogs; single oral dose, CSF from lateral ventricle) was “dose related increase”.
